Data from patent US20220251109A1, “OXAAZAQUINAZOLINE-7(8H)-KETONE COMPOUND, PREPARATION METHOD THEREFOR AND PHARMACEUTICAL APPLICATION THEREOF” (GENFLEET THERAPEUTICS (SHANGHAI) INC., priority 2019, published 2022).
Read-outs that look alike come from different tables or passages of the source.

Columns and labels:
Type in all cases: cell-based, human
[1] = test system: NCI-H358 cells (Kras G12C mutation); assay: Cell proliferation inhibition experiment, 3D model, CellTiter-Glo (NCI-H358); details: NCI-H358, 3D sphere plate, 5 days, 2% FBS
Outline: (§1)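 NCI-H358 (800 cells/well) and A549 (400 cells/well) were grown as overnight 3D spheroids in 2% FBS medium, then exposed 5 days to 3.16-fold compound dilutions (0.1% DMSO). Viability was read by CellTiter-Glo luminescence; IC50 came from a four-parameter fit of inhibition normalised to DMSO and medium blanks.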

[2] = test system: MIA PaCa-2 cells (Kras G12C mutation); assay: Cell proliferation inhibition experiment, 3D model, CellTiter-Glo (MIA PaCa-2); details: MIA PaCa-2, 3D sphere plate, 5 days, read-out: MIA-PaCa2 IC50
Description: MIA PaCa2 was a human pancreatic cancer cell line with Kras G12C mutation, cultured in 10% FBS+2.5% Horse serum DMEM medium; A549 was a human lung adenocarcinoma cell line with Kras G12S mutation, cultured in 10% FBS F-12K medium. The cells in the logarithmic growth phase were taken, digested with enzyme EDTA, collected, counted and 200 MIA PaCa-2 or 400 A549 cells were seeded in a 384-well sphere plate respectively, cultured overnight to establish a 3D cell model. DMSO was used to prepare 1000× compound 3.16-fold gradient concentration stock solution, and medium was used to dilute 100-fold to 10× compound stock solution. On the second day after cell seeding, 10× compound stock solution was added to each cell culture well, the final concentration was 1×, and DMSO content was 0.1%. DMSO was used as an experimental control (control), medium as the blank control (blank). After the compound and cells were added and cultured for 5 days, 30 μl CellTiter-Glo working solution was added to each well, mixed and incubated for 30 minutes. After 30 minutes at room temperature, 40 μl of the mixture was transferred to a 384-well plate with a non-transparent white bottom, the luminescence chemiluminescence value was read, and the cells proliferation inhibition rate IR (%)=(RLU control-RLU compound)/(RLU control-RLU blank)×100% was calculated, XLFit four-parameter method was used to fit the compound's gradient dilution concentration and the corresponding cell proliferation inhibition rate, and the IC50 value was calculate.

[3] = test system: A549 cells (Kras G12S mutation); assay: Cell proliferation inhibition experiment, 3D model, CellTiter-Glo (A549); details: A549, 3D sphere plate, 5 days, 2% FBS
Outline: as §1

[4] = test system: p-ERK in MIA PaCa2 cells (Kras G12C mutation); assay: Cell p-ERK detection experiment (HTRF) in MIA PaCa2 cells; details: compound 2 hours
Description: MIA PaCa2 was a human pancreatic cancer cell line with Kras G12C mutation, cultured in 10% FBS+2.5% Horse serum DMEM medium. The cells in the logarithmic growth phase were taken, digested with enzyme EDTA, collected, counted and 2.5E4 cells were seeded in a 96-well cell culture plate, cultured overnight. DMSO was used to prepare 1000× compound 3.16-fold gradient concentration stock solution, and medium was used to dilute 200-fold to 5× compound stock solution. On the second day after cell seeding, 5× compound stock solution was added to each cell culture well, the final concentration was 1×, and DMSO content was 0.1%. DMSO was used as an experimental control (control). After the compound was added and cultured for two hours, the remaining medium was removed. 50 ul cell lysis buffer was added to each well, mixed and incubated for 30 minutes, then 16 ul of the mixture was transferred to a 96-well plate with a non-transparent white bottom, and 16 ul cell lysis buffer was added to blank wells. After the completion of the transfer, 4 ul p-ERK HTRF antibody mixture was added to each well, incubated for 4 hours and the fluorescence value was read. The compound inhibition rate IR (%)=(RLU control-RLU compound)/(RLU control-RLU blank)×100% was calculated, Prism 8 four-parameter method was used to fit the compound's gradient dilution concentration and the corresponding cell proliferation inhibition rate, and the IC50 value was calculate.

[5] = Homo sapiens, MIA PaCa-2, 120 h

IC50 ([1]; Homo sapiens, NCI-H358, 120 h)	IC50 [2, 5]	IC50 ([3]; Homo sapiens, A549, 120 h)	IC50 ([4]; Homo sapiens, MIA PaCa-2, 2 h)	IC50 [1]	IC50 [3]	IC50 [4]	IC50 [2]	Structure (SMILES)
4 nM	10 nM	> 10 µM	48 nM					C=CC(=O)N1CCN2c3nc(=O)n(-c4c(C)ccnc4C(C)C)c4nc(-c5c(O)ccc(F)c5F)c(Cl)c(c34)OC[C@@H]2C1 [Compound Z53]
5 nM	21 nM	18.7 µM	31 nM					C=CC(=O)N1CCN2c3nc(=O)n(-c4c(C)nc(OC)nc4C(C)C)c4nc(-c5c(O)cccc5F)c(F)c(c34)OC[C@H]2C1 [Compound Z115]
8 nM	74 nM	4.63 µM	39 nM					C=CC(=O)N1CCN2c3nc(=O)n(-c4c(Cl)cncc4C(C)C)c4nc(-c5ccccc5F)c(Cl)c(c34)OC[C@H]2C1 [Compound Z114]
	8 nM		20 nM	3 nM	5.48 µM			C=CC(=O)N1CCN2c3nc(=O)n(-c4c(C)ccnc4C(C)C)c4nc(-c5ccccc5F)c(Cl)c(c34)OC[C@@H]2C1 (single isomer, unassigned) [Compound Z46-2]
3 nM	5 nM	> 10 µM	16 nM					C=CC(=O)N1CCN2c3nc(=O)n(-c4c(C)cc(=O)n(C)c4C(C)C)c4nc(-c5ccccc5F)c(Cl)c(c34)OC[C@H]2C1 [Compound Z121]
3 nM	6 nM	> 10 µM	21 nM					C=CC(=O)N1CCN2c3nc(=O)n(-c4c(C)ccnc4C(C)C)c4nc(-c5c(F)cccc5Cl)c(Cl)c(c34)OC[C@@H]2C1 [Compound Z67]
9 nM	17 nM	> 30 µM	49 nM					C=CC(=O)N1CCN2c3nc(=O)n(-c4c(C)ncnc4C4CC4)c4nc(-c5c(O)cccc5F)c(F)c(c34)OC[C@H]2C1 [Compound Z108]
	2 nM			1 nM	5.55 µM	9 nM		C=CC(=O)N1CCN2c3nc(=O)n(-c4c(C)ccnc4C(C)C)c4nc(-c5ccccc5F)c(Cl)c(c34)OC[C@H]2C1 (single isomer, unassigned) [Compound Z87-2]
3 nM	2 nM	> 10 µM	25 nM					C=CC(=O)N1CCN2c3nc(=O)n(-c4c(C(C)C)ccnc4C)c4nc(-c5c(O)cccc5F)c(F)c(c34)OC[C@H]2C1 [Compound Z92]
12 nM	113 nM	7.9 µM	59 nM					C=CC(=O)N1CCN2c3nc(=O)n(-c4c(C)c(Cl)nn4C(C)C)c4nc(-c5ccccc5F)c(Cl)c(c34)OC[C@H]2C1 [Compound Z119]
				1 nM	> 10 µM	15 nM	3 nM	C=CC(=O)N1CCN2c3nc(=O)n(-c4c(C)ccnc4C(C)C)c4nc(-c5cccc(F)c5F)c(Cl)c(c34)OC[C@@H]2C1 (single isomer, unassigned) [Compound Z47-1]
				28 nM	> 10 µM	185 nM		C=CC(=O)N1CCN2c3nc(=O)n(-c4nccnc4C(C)C)c4nc(-c5ccccc5F)c(Cl)c(c34)OC[C@H]2C1 (atropisomer, axis not shown) [Compound Z104-2]
				30 nM	10.1 µM	93 nM		C=CC(=O)N1CCN2c3nc(=O)n(-c4c(C)ccnc4C(C)C)c4nc(-c5cccc(Cl)c5F)c(Cl)c(c34)OC[C@H]2C1 (atropisomer, axis not shown) [Compound Z91-1]
		12.1 µM		1 nM		9 nM		C=CC(=O)N1CCN2c3nc(=O)n(-c4c(C)ccnc4C(C)C)c4nc(-c5c(F)cccc5OC)c(Cl)c(c34)OC[C@H]2C1 (single isomer, unassigned) [Compound Z83-1]
		11.3 µM		52 nM		248 nM		C=CC(=O)N1CCN2c3nc(=O)n(-c4c(C)ncnc4C(C)C)c4nc(-c5ccccc5F)c(Cl)c(c34)OC[C@H]2C1 (single isomer, unassigned) [Compound Z95-1]
19 nM		> 30 µM	166 nM					C=CC(=O)N1CCN2c3nc(=O)n(-c4c(C)ccnc4C(C)C)c4nc(-c5cc(O)ccc5F)c(Cl)c(c34)OC[C@H]2C1 [Compound Z118]
5 nM		> 10 µM	63 nM					C=CC(=O)N1CCN2c3nc(=O)n(-c4c(C)ccnc4C(C)C)c4nc(-c5c(O)cccc5F)c(C)c(c34)OC[C@H]2C1 [Compound Z72]
34 nM		> 30 µM	186 nM					C=CC(=O)N1CCN2c3nc(=O)n(-c4c(OC)ncnc4C(C)C)c4nc(-c5c(O)cccc5F)c(F)c(c34)OC[C@H]2C1 (single isomer, unassigned) [Compound Z111-1]
		> 30 µM		38 nM		395 nM		C=CC(=O)N1CCN2c3nc(=O)n(-c4nccnc4C(C)C)c4nc(-c5c(O)cccc5F)c(Cl)c(c34)OC[C@H]2C1 (atropisomer, axis not shown) [Compound Z105-1]
				15 nM	9.77 µM	67 nM		C=CC(=O)N1CCN2c3nc(=O)n(-c4c(C)ccnc4C(C)C)c4nc(-c5c(F)cccc5OC)c(Cl)c(c34)OC[C@H]2C1 (single isomer, unassigned) [Compound Z83-2]
				2 nM	8.3 µM	23 nM		C=CC(=O)N1CCN2c3nc(=O)n(-c4c(C)ccnc4C(C)C)c4nc(-c5cccc(Cl)c5F)c(Cl)c(c34)OC[C@@H]2C1 (single isomer, unassigned) [Compound Z82-2]
		> 10 µM		26 nM		58 nM		C=CC(=O)N1CCN2c3nc(=O)n(-c4c(C)ccnc4C(C)C)c4nc(-c5cccc(F)c5F)c(Cl)c(c34)OC[C@H]2C1 (single isomer, unassigned) [Compound Z77-1]
		> 10 µM		59 nM		195 nM		C=CC(=O)N1CCN2c3nc(=O)n(-c4c(C)ncnc4C(C)C)c4nc(-c5cccc(F)c5F)c(Cl)c(c34)OC[C@H]2C1 (single isomer, unassigned) [Compound Z96-1]
				3 nM	> 10 µM	27 nM		C=CC(=O)N1CCN2c3nc(=O)n(-c4c(C)ncnc4C(C)C)c4nc(-c5c(O)cccc5F)c(Cl)c(c34)OC[C@H]2C1 (single isomer, unassigned) [Compound Z88-2]
		> 30 µM		19 nM		226 nM		C=CC(=O)N1CCN2c3nc(=O)n(-c4nccnc4C(C)C)c4nc(-c5c(O)cccc5F)c(F)c(c34)OC[C@H]2C1 (atropisomer, axis not shown) [Compound Z107-1]
				16 nM	> 10 µM	53 nM		C=CC(=O)N1CCN2c3nc(=O)n(-c4c(C)ccnc4C(C)C)c4nc(-c5c(O)cccc5F)c(Cl)c(c34)OC[C@@H]2C1 (single isomer, unassigned) [Compound Z24-1]
				2 nM	4.22 µM	16 nM		C=CC(=O)N1CCN2c3nc(=O)n(-c4c(C)ccnc4C(C)C)c4nc(-c5cccc(Cl)c5F)c(Cl)c(c34)OC[C@H]2C1 [Compound Z91]
			27 nM	3 nM	> 10 µM			C=CC(=O)N1CCN2c3nc(=O)n(-c4c(C)ccnc4C(C)C)c4nc(-c5cccc(C(F)(F)F)c5F)c(Cl)c(c34)OC[C@@H]2C1 (single isomer, unassigned) [Compound Z57-2]
		10.2 µM		47 nM		158 nM		C=CC(=O)N1CCN2c3nc(=O)n(-c4c(C)ccnc4C(C)C)c4nc(-c5ccccc5F)c(Cl)c(c34)OC[C@H]2C1 (single isomer, unassigned) [Compound Z87-1]
